Experimental data taken from PubChem BioAssay AID504313 (Emory University Molecular Libraries Screening Center, 2011).
Activity calls are given as the source filed them. No rule for the calls is given here.

molecular target: X-box-binding protein 1 (Homo sapiens) (UniProt P17861); test: inhibitors of XBP1 reporter signal, dose response, counter-screen, cell-based (AID 504313); details: XBP1 reporter cell assay, percent of control;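 also: CHO cells carrying an XBP1 reporter stimulated with tunicamycin; potency is for inhibition of the tunicamycin-induced reporter signal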

Structure (SMILES)	IC50
CCCCCCn1c(N2CCC(C)CC2)nc2c1c(=O)[nH]c(=O)n2C	> 10 µM (inactive)
Cc1ccc2[nH]c3c(c2c1)CN(C(=O)CN1CCN(c2cccc(C)c2C)CC1)CC3	> 10 µM (inactive)
CCN1/C(=C/C(C)=C/c2sc3ccccc3[n+]2CC)Sc2ccccc21	> 10 µM (inactive)
COc1ccc(C(=O)/C=C/C(=O)N(CC(=O)NC2CCCCC2)Cc2ccc(F)cc2)c(O)c1	2.25 µM
CCn1c(C)nc2cc(-c3nnc(-c4c(-c5ccccc5)noc4C)o3)ccc21	> 10 µM (inactive)
CCCCCCN1C=CC(=C2C(=O)c3ccccc3C2=O)C=C1	inactive
COc1ccc(N/N=C(\C=N\O)C(=O)c2ccc(OC)cc2)cc1	> 10 µM (inactive)
O=C(CCl)Nc1cccc(-c2cnc3ccccc3n2)c1	> 10 µM (inactive)
Cc1ccc(S(=O)(=O)/N=C2/C=C(Sc3ncn[nH]3)C(=O)c3ccccc32)cc1	inactive
CCSCCc1nnc(NC(=O)Nc2cccc(C(F)(F)F)c2)s1	4.74 µM
COc1ccc(N=c2oc3ccc(OC)cc3cc2-c2nc3ccccc3[nH]2)cc1	inactive
CCCCCCCCCCCCCCCCn1cc[n+](C)c1	inactive
O=C(Nc1ccc(C(O)(C(F)(F)F)C(F)(F)F)cc1)c1ccc(Cl)c([N+](=O)[O-])c1	inactive
CCOC(=O)c1ccc(NC(=O)c2nc[nH]c2C(=O)N[C@@H](C)C(=O)OC(C)(C)C)cc1	inactive
C=C(C)C(=O)OC1(C(F)(F)F)Oc2cc(C)ccc2NC1=O (centres undefined)	inactive
CN1/C(=C\C=C\C2=[N+](C)c3ccc4ccccc4c3C2(C)C)C(C)(C)c2ccccc21	< 0.16 µM
Fc1c(F)c(C(F)(F)F)c(F)c(F)c1N/N=C\c1cccs1	4.26 µM
CCc1ccc2c(c1)C(c1ccc([N+](=O)[O-])cc1)=NNC(c1ccc(C)cc1)=N2	> 10 µM (inactive)
CN(C)c1ccc(/C=C/c2ccc3c4ccccc4ccc3[n+]2-c2ccccc2)cc1	2.28 µM
CCNC(=S)N/N=C/c1cc(Br)cc(Br)c1OC	> 10 µM (inactive)

Structure (SMILES)	IC50
O=C(CSC1c2ccccc2-c2ccccc21)N/N=C/c1ccccc1O	> 10 µM (inactive)
CCCc1cc(C(=O)Cc2ccc(F)cc2)c(O)cc1O	inactive
C=CCOC(=O)C1=C(C)NC(SCC(=O)Nc2nccs2)=C(C#N)C1c1ccc(Cl)cc1 (centres undefined)	> 10 µM (inactive)
O=S1(=O)C=C(Sc2nnc(-c3ccccc3)o2)c2ccccc21	inactive
Cc1ccc(C(C(=O)NCc2ccco2)N(C(=O)CNC(=O)c2cccs2)c2c(C)cccc2C)cc1 (centres undefined)	> 10 µM (inactive)
OC(CNCC(c1ccc(Cl)cc1Cl)c1c[nH]c2ccccc12)c1ccccc1 (centres undefined)	inactive
CC(C)(C)c1cc(CN2CCCC(O)C2)c(O)c(C(C)(C)C)c1 (centres undefined)	inactive
O=C1NC[C@@H](Cc2cccc3ccccc23)N(CCc2cc(C(F)(F)F)cc(C(F)(F)F)c2)C1=O	inactive
CC1=Nc2nc(N3CCCCC3)c(C#N)c3c4c(nc(c23)N1)N(c1ccc(C(C)C)cc1)C(=O)C4	inactive
CC1CCN(c2nc3ccc(C(=O)O)cc3s2)CC1	inactive
Cc1ccc(C(=O)N/C(=C\c2ccc(Br)cc2)c2nc(=S)[nH][nH]2)cc1	> 10 µM (inactive)
O=C(CNC1CCCCCC1)Nc1ccccc1N1CCCCC1	inactive
Cc1ccc(NC(=O)CCl)cc1S(=O)(=O)N1CCCCCC1	inactive
O=[N+]([O-])c1ccc(/C=N/N=C/c2ccc([N+](=O)[O-])o2)o1	2.59 µM
COC(=O)/C(=C1/Oc2cc(C)oc(=O)c2S1)C(F)(F)F	2.94 µM
C/C(=C\c1ccco1)C1C(C#N)=C(N)Oc2n[nH]c(-c3ccc(C)cc3)c21 (centres undefined)	> 10 µM (inactive)
COc1ccc(C(=O)NC(=O)Nc2cc(C)ccn2)cc1	inactive
Cc1ccc(C2(c3ccc(C)cc3)CC2C(=O)Nc2ccc([N+](=O)[O-])cc2O)cc1 (centres undefined)	inactive
O=[N+]([O-])c1ccc(-c2nc(C(Cl)Cl)c3ccccc3n2)cc1	1.34 µM
